Source: patent publication US20060058322A1, “Method of wound healing using A2B adenosine receptor antagonists” (priority 2004, published 2006)
Marks after values point to notes of the source that are not given here.

Columns and labels:
[1] = system: ICR derived male mice; assay: Wound healing in mouse model (full-thickness punch wound, topical treatment); assay type: in vivo; conditions: mean, n=5; for CT50 (wound half-closure time): linear regression
Protocol: Groups of ICR derived male mice (weighing 24±2 g) of 5 each were used. During testing period, the animals were single-housed in each cage. Under hexobarbital (90 mg/kg, IP) anesthesia, the shoulder and back region of each animal was shaved. A sharp punch (ID 12 mm) was applied to remove the skin including panniculus carnosus and adherent tissues. […] Test substances were administered topically immediately following wound injury once daily for a total of 10 consecutive days. The closure of the wound (%) and wound half-closure time (CT50) were determined by linear regression using Graph-Pad Prism™ (Graph Pad Software USA) and unpaired Student's t test was applied for comparison between treated and vehicle groups at each measurement time point on days 3, 5, 7, 9 and 11. Differences are considered of statistical significance at P<0.05 level.
Table 1 presents test data obtained for the compound 3-ethyl-1-propyl-8-(1-{[3-(trifluoromethyl)phenyl]methyl}pyrazol-4-yl)-1,3,7-trihydropurine-2,6-dione using the mouse model discussed above. Table 2 presents test date obtained using 1,3-dipropyl-8-(1-{[6-(trifluoromethyl)(3-pyridyl)]methyl}pyrazol-4-yl)- 1,3,7-trihydropurine-2,6-dione. In each case, the vehicle used for comparison was 1.5% carboxymethylcellulose in phosphate buffered saline at pH 7.4

[2] = system: Yorkshire pig; assay: Wound healing in pig model (full thickness excisions, total granulation tissue); assay type: in vivo
Protocol: Pig skin heals most like human skin and therefore testing on this animal provides an optimal paradigm to study cutaneous repair mechanisms. In this Example, the effect of an A2B antagonist on wound healing was tested in three pigs. PDGF (REGRANEX® (becaplermin) Gel 0.01%, Ortho-McNeil Pharmaceutical, Inc., Raritan, N.J.) was used as a positive control. The vehicle for drug delivery was 1.5% methylcellulose gel (KY gel). Control wounds received the vehicle alone. 3 different dosages of the A2B antagonist 3-ethyl-1-propyl-8-(1-{[3-(trifluoromethyl)phenyl]methyl}pyrazol-4-yl)-1,3,7-trihydropurine-2,6-dione, 1 μg/40 μl, 4 μg/40 μl, and 20 μg/40 μl were tested.
Method: Three Yorkshire pig ([…].) were used. On the day of surgery, a series of full thickness excisions were created alongside the paravertebral region on one side of the pig. Pigs were sacrificed at the end of 10 days and all wounds were removed for histological and immunohistochemical examinations.

CCCn1c(=O)c2[nH]c(-c3cnn(Cc4ccc(C(F)(F)F)nc4)c3)nc2n(CCC)c1=O [1,3-dipropyl-8-(1-{[6-(trifluoromethyl)(3-pyridyl)]methyl}pyrazol-4-yl)-1,3,7-trihydropurine-2,6-dione]
Percent wound closure ([1]; Table 2, 0.5 μg/mouse topical once daily, Day 3): 41.9* % | Percent wound closure ([1]; Table 2, 0.5 μg/mouse topical once daily, Day 5): 53.5* % | Percent wound closure ([1]; Table 2, 0.5 μg/mouse topical once daily, Day 7): 65.8* % | Percent wound closure ([1]; Table 2, 0.5 μg/mouse topical once daily, Day 9): 77.1* % | Percent wound closure ([1]; Table 2, 0.5 μg/mouse topical once daily, Day 11): 85.3* % | CT50 (wound half-closure time) ([1]; Table 2, 0.5 μg/mouse topical once daily): 5.5* DAYS

CCCn1c(=O)c2[nH]c(-c3cnn(Cc4cccc(C(F)(F)F)c4)c3)nc2n(CC)c1=O [3-ethyl-1-propyl-8-(1-{[3-(trifluoromethyl)phenyl]methyl}pyrazol-4-yl)-1,3,7-trihydropurine-2,6-dione]
Percent wound closure ([1]; 0.5 μg/mouse topical once daily, Day 1): 0% | Percent wound closure ([1]; 0.5 μg/mouse topical once daily, Day 2): 43.2* % | Percent wound closure ([1]; 0.5 μg/mouse topical once daily, Day 3): 51.2* % | Percent wound closure ([1]; 0.5 μg/mouse topical once daily, Day 4): 56.0* % | Percent wound closure ([1]; 0.5 μg/mouse topical once daily, Day 5): 58.8* % | Percent wound closure ([1]; 0.5 μg/mouse topical once daily, Day 6): 64.3* % | Percent wound closure ([1]; 0.5 μg/mouse topical once daily, Day 7): 72.5* % | Percent wound closure ([1]; 0.5 μg/mouse topical once daily, Day 8): 78.2* % | Percent wound closure ([1]; 0.5 μg/mouse topical once daily, Day 9): 82.5* % | Percent wound closure ([1]; 0.5 μg/mouse topical once daily, Day 10): 83.1* % | Percent wound closure ([1]; 0.5 μg/mouse topical once daily, Day 11): 87.1* % | CT50 (wound half-closure time) ([1]; 0.5 μg/mouse topical once daily): 4.3* DAYS | Percent wound closure ([1]; 2 μg/mouse topical once daily, Day 1): 0% | Percent wound closure ([1]; 2 μg/mouse topical once daily, Day 2): 35.6* % | Percent wound closure ([1]; 2 μg/mouse topical once daily, Day 3): 46.5* % | Percent wound closure ([1]; 2 μg/mouse topical once daily, Day 4): 57.4* % | Percent wound closure ([1]; 2 μg/mouse topical once daily, Day 5): 62.4% | Percent wound closure ([1]; 2 μg/mouse topical once daily, Day 6): 68.3* % | Percent wound closure ([1]; 2 μg/mouse topical once daily, Day 7): 73.3* % | Percent wound closure ([1]; 2 μg/mouse topical once daily, Day 8): 78.8* % | Percent wound closure ([1]; 2 μg/mouse topical once daily, Day 9): 82.2* % | Percent wound closure ([1]; 2 μg/mouse topical once daily, Day 10): 89.2* % | Percent wound closure ([1]; 2 μg/mouse topical once daily, Day 11): 91.6* % | CT50 (wound half-closure time) ([1]; 2 μg/mouse topical once daily): 4.4* DAYS | Total granulation tissue, lowest dose versus highest dose ([2]; 1 μg/40 μl versus 20 μg/40 μl topical, p=0.047): statistical difference | Total granulation tissue, highest dose versus placebo formulation ([2]; 20 μg/40 μl topical, p=0.035): statistical difference | Effect on total granulation tissue ([2]; topical 1, 4 and 20 μg/40 μl in 1.5% methylcellulose gel, 10 days, FIG. 1): stimulated the total granulation tissue in a dose-dependent fashion

PDGF
Total granulation tissue, positive control versus placebo formulation ([2]; REGRANEX (becaplermin) Gel 0.01%, p=0.034): statistical difference
